Consider twelve compounds from BindingDB's records for PubMed 11408610 (Virginia Commonwealth University, 2001).

Molecules are shown by their SMILES.

Cannabinoid receptor 1, sequence (P20272 whole entry): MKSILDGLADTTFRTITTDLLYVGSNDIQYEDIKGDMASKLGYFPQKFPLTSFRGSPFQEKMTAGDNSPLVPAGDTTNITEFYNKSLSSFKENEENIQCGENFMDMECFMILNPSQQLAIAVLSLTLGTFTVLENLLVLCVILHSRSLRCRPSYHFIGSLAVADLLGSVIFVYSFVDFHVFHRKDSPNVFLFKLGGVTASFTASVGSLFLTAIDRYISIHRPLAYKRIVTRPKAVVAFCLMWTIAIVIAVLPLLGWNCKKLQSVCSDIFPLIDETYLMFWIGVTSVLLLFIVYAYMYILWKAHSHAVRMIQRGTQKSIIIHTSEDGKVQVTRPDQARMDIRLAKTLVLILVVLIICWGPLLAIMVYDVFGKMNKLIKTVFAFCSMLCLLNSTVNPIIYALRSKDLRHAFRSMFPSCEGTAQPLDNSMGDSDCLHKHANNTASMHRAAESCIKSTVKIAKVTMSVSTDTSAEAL

The test has as its target Cannabinoid receptor 1 (Rattus norvegicus, UniProt P20272).
On to `CCn1ccc(C(=O)c2cccc3ccccc23)c1` [JWH-045], for which the inhibition constant Ki (as a rule, the equilibrium dissociation constant of an inhibitor or competing ligand from its target) is above 10000 nM. Next, `CCCCC/C=C/C/C=C/C/C=C/C/C=C/CCC(C)C(=O)NCCF` (configuration not stated) [(5Z,8Z,11Z,14Z)-N-(2-Fluoroethyl)-2-methyl-5,8,11,14-icosatetrenamide]: 5.7 nM; `CCCCn1cc(C(=O)c2cccc3ccccc23)c2ccccc21` [1-Naphthyl(1-butyl-1H-indole-3-yl)methanone]: 8.9 nM.

On to `CCCCCCn1ccc(C(=O)c2cccc3ccccc23)c1` [CAS_162934-74-9], for which the Ki is 399 nM. In turn, `CCCCCCCn1ccc(C(=O)c2cccc3ccccc23)c1` [JWH-036] had a Ki of 309 nM. As for `CCCCC/C=C/C/C=C/C/C=C/C/C=C/CCC(C)C(=O)NCCO` (configuration not stated) [(5Z,8Z,11Z,14Z)-2-Methyl-N-(2-hydroxyethyl)-5,8,11,14-icosatetrenamide], the figure is 53 nM. `CCCCCc1cc(O)c2c(c1)OC(C)(C)c1ccc(C)cc1-2` [6,6,9-Trimethyl-3-pentyl-6H-benzo[c]chromen-1-ol(Cannabinol)] displayed a Ki of 308 nM.

For `CCCCCn1ccc(C(=O)c2cccc3ccccc23)c1`, the Ki was found to be 87 nM. Compound `Cn1ccc(C(=O)c2cccc3ccccc23)c1` [JWH-044] had a Ki above 10000 nM. As for `CCCCC/C=C/C/C=C/C/C=C/C/C=C/CCC(C)(C)C(=O)NCCO` [2-dimethyl-anandamide], the figure is 47 nM; as for `CCCCCCC(C)(C)c1cc(O)c2c(c1)OC(C)(C)[C@@H]1CC=C(CO)CC21` (stereo partly drawn) [(R)-3-(1,1-Dimethyl-heptyl)-9-hydroxymethyl-6,6-dimethyl-6a,7,10,10a-tetrahydro-6H-benzo[c]chromen-1-ol], 0.73 nM. With `CCCn1ccc(C(=O)c2cccc3ccccc23)c1` [JWH-032], the Ki was above 10000 nM.
